Legend:
[1] = logP determination by HPLC on a reversed-phase column (C18), EEC Directive 79/831 Annex V.A8; type: physicochemical; details: HPLC on reversed-phase column (C18), acetonitrile/water with formic acid, EEC Directive 79/831 Annex V.A8
Summary of the method: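 Retention on a C18 reversed-phase column (Zorbax Eclipse Plus, 1.8 micron) was used, eluting with acetonitrile/water, each containing formic acid. The gradient ran from 10% to 95% acetonitrile over 4.25 min, then held 1.25 min, at 55° C and 2.0 ml/min, with MS detection.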

[2] = tested on: southern root-knot nematode (Meloidogyne incognita); test: Meloidogyne incognita test (MELGIN); type: in vivo; details: application rate 20 ppm; lettuce; after 14 days
Experimental: K. Meloidogyne incognita Test (MELGIN)
Solvent: 125.0 parts by weight of acetone
To prepare a suitable active compound preparation, 1 part by weight of active compound is mixed with the stated amount of solvent and the concentrate is diluted with water to the desired concentration.
Vessels are filled with sand, active compound solution, an egg/larvae suspension of the southern root-knot nematode (Meloidogyne incognita) and lettuce seeds. The lettuce seeds germinate and the plants develop. On the roots, galls are formed.
After 14 days, the nematicidal efficacy in % is determined by the formation of galls. 100% means that no galls have been found; 0% means that the number of galls on the treated plants corresponds to the untreated control.

[3] = tested on: L1 larvae of the Australian sheep blowfly (Lucilia cuprina); test: Lucilia cuprina test (LUCICU); type: in vivo; details: application rate 100 ppm; after 2 days
Summary of the method: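 About 20 L1 larvae placed in a vessel with minced horsemeat plus compound (DMSO concentrate diluted with water to the desired concentration). Kill in % scored after 2 days, 100% meaning all larvae dead.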

[4] = tested on: caterpillars of the armyworm (Spodoptera frugiperda); test: Spodoptera frugiperda spray test (SPODFR); type: in vivo; details: maize leaf discs, after 7 days
Summary of the method: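 Maize leaf discs sprayed with compound in acetone/DMF with alkylaryl polyglycol ether emulsifier (1000 ppm) in water, dried, then infested with armyworm caterpillars. Mortality (%) scored after 7 days; 100% = all caterpillars killed, 0% = none killed.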

[5] = tested on: adult castor bean ticks (Ixodes ricinus); test: Ixodes ricinus in vitro contact test with adult castor bean ticks (T3); details: after 48 h
Experimental: T3. Ixodes ricinus-in vitro Contact Tests with Adult Castor Bean Ticks
For the coating of the test tubes, initially 9 mg of active compound are dissolved in 1 ml of acetone p.a. and then diluted with acetone p.a. to the desired concentration. By turning and rocking on an orbital shaker (2 h of rocking rotation at 30 rpm), 250 μl of the solution are distributed homogeneously on the internal walls and the floor of a 25 ml test tube. At 900 ppm active compound solution and 44.7 cm^2 internal surface, an area dose of 5 μg/cm^2 is achieved for homogeneous distribution.
After evaporation of the solvent, the tubes are populated with 5-10 adult castor bean ticks (Ixodes ricinus), sealed with a perforated plastic lid and incubated in a horizontal position in the dark at 22° C. and 90% humidity in a climate-controlled cabinet. After 48 h, the efficacy is determined. To this end, the ticks are knocked to the floor of the tube and incubated on a hotplate at 45-50° C. for at most 5 min. Ticks which remain motionless on the floor or move in an uncoordinated manner such that they are not able to deliberately avoid the heat by climbing upwards are considered to be dead or moribund.
An efficacy of 100% means that all ticks were dead or moribund. 0% efficacy means that none of the ticks had been damaged.

[6] = tested on: bont tick nymphs (Amblyomma hebraeum); details: after 48 h
[7] = tested on: engorged adult female cattle ticks (Boophilus microplus); test: Boophilus microplus injection test (BOOPMI Inj); type: in vivo; details: application rate 20 μg/animal; injection into abdomen; assessed after 7 days
Summary of the method: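 DMSO solution of compound (1 μl) injected into the abdomen of 5 engorged adult female ticks, which are then held in a climate-controlled room. After 7 days, efficacy is scored from laying of fertile eggs, with unclear eggs kept until larval hatch (~42 days); 100% means no fertile eggs, 0% all fertile.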

[8] = tested on: larvae of the mustard beetle (Phaedon cochleariae); test: Phaedon cochleariae spray test (PHAECO); type: in vivo; details: Chinese cabbage leaf discs, after 7 days
Summary of the method: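 Compound dissolved in acetone/dimethylformamide with alkylaryl polyglycol ether emulsifier, made up in water containing 1000 ppm emulsifier, then diluted to test concentrations and sprayed against mustard beetle larvae. Efficacy (% larvae killed) scored after 7 days.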

[9] = tested on: adult houseflies (Musca domestica); test: Musca domestica test (MUSCDO); type: in vivo; details: application rate 100 ppm; after 2 days
Summary of the method: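 Compound dissolved in DMSO and diluted with water to the test concentration, applied with sugar solution on a sponge; 10 adult houseflies per vessel. Mortality scored after 2 days as % kill (100% all dead, 0% none).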

[10] = tested on: green peach aphid (Myzus persicae); test: Myzus persicae spray test (MYZUPE); type: in vivo; details: application rate 500 g/ha; Chinese cabbage leaf discs; after 6 days
Summary of the method: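 Chinese cabbage leaf discs infested with all aphid stages sprayed with compound in acetone/DMF with alkylaryl polyglycol ether emulsifier in water. Efficacy (% aphids killed; 100% all dead, 0% none) scored after 6 days.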

[11] = tested on: adult cat fleas (Ctenocephalides felis); test: Ctenocephalides felis oral test (CTECFE); type: in vivo; details: application rate 100 ppm in citrated cattle blood; after 2 days
Summary of the method: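 About 20 unfed adult cat fleas fed through parafilm membrane on citrated cattle blood containing compound (DMSO stock diluted in blood to test concentration). Kill % scored after 2 days (100% = all fleas dead).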

[12] = tested on: Tick nymphs (Amblyomma hebraeum); test: Amblyomma hebraeum test (AMBYHE), tick nymphs immersed; type: in vivo; details: application rate 100 ppm; immersed one minute; after 42 days
Experimental: A. Amblyomma hebaraeum Test (AMBYHE)
Solvent: dimethyl sulphoxide
To produce a suitable preparation of active compound, 10 mg of active compound are mixed with 0.5 ml of dimethyl sulfoxide, and the concentrate is diluted with water to the desired concentration.
Tick nymphs (Amblyomma hebraeum) are placed into perforated plastic beakers and immersed in the desired concentration for one minute. The ticks are transferred on filter paper into a Petri dish and stored in a climate-controlled cabinet.
After 42 days, the kill in % is determined. 100% means that all of the ticks have been killed; 0% means that none of the ticks have been killed.

[13] = tested on: cattle ticks (Boophilus microplus) Parkhurst strain, SP-resistant; test: Boophilus microplus dip test (BOOPMI Dip); type: in vivo; details: application rate 100 ppm, assessed after 7 days
Summary of the method: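 Adult engorged female SP-resistant Parkhurst ticks (8–10) were fully immersed in compound diluted in water from a DMSO solution, then kept in a climate-controlled room. After 7 days, fertile egg-laying was scored, with larval hatching checked at about 42 days; 100% efficacy means no fertile eggs.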

[14] = tested on: adult dog ticks (Rhipicephalus sanguineus); test: Rhipicephalus sanguineus in vitro contact test with adult brown dog ticks (T2); details: after 48 h
Summary of the method: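 Acetone solutions coated onto test tube walls and floor, giving 5 μg/cm^2 at 900 ppm. Five to ten adult ticks held per tube in the dark at room temperature for 48 h, then heated at 45-50° C for up to 5 min; efficacy is the percentage of dead or moribund ticks unable to climb away.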

[15] = tested on: adult cat fleas (Ctenocephalides felis); test: Ctenocephalides felis in vitro contact test with adult cat fleas (T1); details: after 48 h
Summary of the method: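 Test compound was dissolved in acetone p.a. (9 mg per 1 ml) and diluted as needed. 250 μl was spread evenly over the inner walls and floor of a 25 ml test tube by rotating on an orbital shaker for 2 h at 30 rpm. Once the solvent evaporated, 5-10 adult Ctenocephalides felis were added. Tubes were capped with a perforated plastic lid and kept horizontal at room temperature and ambient humidity.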

[16] = tested on: greenhouse red spider mite (Tetranychus urticae); test: Tetranychus urticae spray test, OP-resistant (TETRUR); type: in vivo; details: bean leaf discs, after 6 days
Summary of the method: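 Bean leaf discs carrying all stages of OP-resistant Tetranychus urticae were sprayed with compound formulated in acetone/dimethylformamide and diluted in water with 1000 ppm alkylaryl polyglycol ether emulsifier. Mortality (% efficacy, 100% = all mites killed) scored after 6 days.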

SMILES	efficacy (kill in %) [3] [%]	efficacy in % ([4]; application rate 500 g/ha) [%]	efficacy (dead or moribund ticks) ([5]; application rate 5 μg/cm^2) [%]	efficacy (dead or moribund ticks) [6] [%]	efficacy (laying of fertile eggs) [7] [%]	efficacy in % ([8]; application rate 500 g/ha) [%]	efficacy (kill in %) [9] [%]	efficacy in % [10] [%]	efficacy (kill in %) [11] [%]	efficacy (kill in %) [12] [%]	efficacy (laying of fertile eggs) [13] [%]	efficacy (dead or moribund ticks) ([14]; application rate 1 μg/cm^2) [%]	efficacy (dead or moribund ticks) ([14]; application rate 5 μg/cm^2) [%]	efficacy (dead or moribund fleas) ([15]; application rate 1 μg/cm^2) [%]	efficacy (dead or moribund fleas) ([15]; application rate 5 μg/cm^2) [%]	efficacy in % ([16]; application rate 500 g/ha) [%]	other results
Cn1nc(C(F)(F)C(F)(F)F)c(C(F)(F)F)c1-n1cc(-c2ccc(Cl)c(C(=O)NS(C)(=O)=O)c2)cn1 [Ic-26]																	logP [1]: 3.58; nematicidal efficacy in % (formation of galls) [2]: 90%
Cn1nc(C(F)(F)C(F)(F)F)c(C(F)(F)F)c1-n1cc(-c2cc(F)c(F)c(C(=O)NC3(C#N)CC3)c2)cn1 [Ic-47]	100	100	100	100	100	100	100	100	100	100	100	100	100	100	100		
Cn1nc(C(F)(F)C(F)(F)F)c(C(F)(F)F)c1-n1cc(-c2cc(C(=O)NC3CC3)c(F)cc2Cl)cn1 [Ic-49]	100	100		100	100	100	100	90	100	100	100	100	100	100	100	90	
Cn1nc(C(F)(F)C(F)(F)F)c(C(F)(F)F)c1-n1cc(-c2cnc(Cl)c(C(=O)NC3(C#N)CC3)c2)cn1 [Ic-83]	100		100	100	100		100		100	100	100	100	100	100	100		efficacy in % ([4]; application rate 100 g/ha): 100%; efficacy in % ([8]; application rate 100 g/ha): 100%; efficacy in % ([16]; application rate 100 g/ha): 100%
Cc1ncc(-c2cnn(-c3c(C(F)(F)F)c(C(F)(F)C(F)(F)F)nn3C)c2)cc1C(=O)NC1(C#N)CC1 [Ic-85]	100	100			100	100	100	100	100	100	100	100	100	100	100	100	
Cc1cc(-c2cnn(-c3c(C(F)(F)F)c(C(F)(F)C(F)(F)F)nn3C)c2)cc(C(=O)NC2CC2)c1Cl [Ic-90]	100	100	100	100	100	100	100	100	100		100	100	100	100	100	90	efficacy (dead or moribund ticks) ([5]; application rate 1 μg/cm^2): 100%
Cc1cc(-c2cnn(-c3c(C(F)(F)F)c(C(F)(F)C(F)(F)F)nn3C)c2)cc(C(=O)NC2(C#N)CC2)c1Cl [Ic-91]	100	100			100	100	100	100	100	100	100		80	100	100	100	
Cn1nc(C(F)(F)C(F)(F)F)c(C(F)(F)F)c1-n1cc(-c2cc(Cl)c(Cl)c(C(=O)NC3(C#N)CC3)c2)cn1 [Ic-95]	100	100		100	100	100	100	90	100	100	100	100	100	100	100	100	
CSCC1CCC1NC(=O)c1cc(-c2cnn(-c3c(C(F)(F)F)c(C(F)(F)C(F)(F)F)nn3C)c2)ccc1Cl (stereo not shown) [Ic-120]																	efficacy in % ([8]; application rate 100 g/ha): 83%; efficacy in % ([16]; application rate 100 g/ha): 100%; logP [1]: 4.56; nematicidal efficacy in % (formation of galls) [2]: 90%
